Experimental data reported in ChEMBL document CHEMBL1141497, “Discovery of novel FMS kinase inhibitors as anti-inflammatory agents” (Bioorg Med Chem Lett, 2008).
Each block holds one molecule with its values, some of them ahead of it.

How the values were obtained:
[1] = target: Macrophage colony-stimulating factor 1 receptor (Homo sapiens, UniProt P07333); assay: biochemical
Macrophage = assay: Inhibition of FMS-induced proliferation of bone marrow derived human macrophages; assay type: functional, cell-based
[2] = target: High affinity nerve growth factor receptor (Homo sapiens, UniProt P04629); assay: Inhibition of TrkA after 27 mins by fluorescence polarization
[3] = target: Mast/stem cell growth factor receptor Kit (Homo sapiens, UniProt P10721); assay: Inhibition of Kit after 30 mins by fluorescence polarization
[4] = Oral bioavailability in CD1 mouse at 10 mg/kg; assay type: ADME, organism-based; details: in vivo
Mus musculus [5] = species on record: Mus musculus; assay: Reduction in pannus formation in mouse CIA model BID for 14 days; assay type: functional; parameters: scale not given: the % may be the effect or the level left
Mus musculus [6] = assay: Reduction in progression of collagen-induced arthritis scores in mouse CIA model at 30 mg/kg, po bid; assay type: functional; parameters: scale not given: the % may be the effect or the level left
[7] = Cmax in CD1 mouse at 2 mg/kg, iv and 10 mg/kg, po; assay type: ADME, organism-based; details: in vivo
Mus musculus [8] = species on record: Mus musculus; assay: Reduction in bone destruction in mouse CIA model BID for 14 days; assay type: functional; parameters: scale not given: the % may be the effect or the level left
[9] = Half life in CD1 mouse at 2 mg/kg, iv and 10 mg/kg, po; assay type: ADME, organism-based; details: in vivo
[10] = Volume of distribution in CD1 mouse at 2 mg/kg, iv and 10 mg/kg, po; assay type: ADME, organism-based; details: in vivo, read-out: Vdss
Mus musculus [11] = assay: Reduction in progression of collagen-induced arthritis scores in mouse CIA model at 5 mg/kg, po bid; assay type: functional; parameters: scale not given: the % may be the effect or the level left

Chain of Macrophage colony-stimulating factor 1 receptor (P07333 whole entry): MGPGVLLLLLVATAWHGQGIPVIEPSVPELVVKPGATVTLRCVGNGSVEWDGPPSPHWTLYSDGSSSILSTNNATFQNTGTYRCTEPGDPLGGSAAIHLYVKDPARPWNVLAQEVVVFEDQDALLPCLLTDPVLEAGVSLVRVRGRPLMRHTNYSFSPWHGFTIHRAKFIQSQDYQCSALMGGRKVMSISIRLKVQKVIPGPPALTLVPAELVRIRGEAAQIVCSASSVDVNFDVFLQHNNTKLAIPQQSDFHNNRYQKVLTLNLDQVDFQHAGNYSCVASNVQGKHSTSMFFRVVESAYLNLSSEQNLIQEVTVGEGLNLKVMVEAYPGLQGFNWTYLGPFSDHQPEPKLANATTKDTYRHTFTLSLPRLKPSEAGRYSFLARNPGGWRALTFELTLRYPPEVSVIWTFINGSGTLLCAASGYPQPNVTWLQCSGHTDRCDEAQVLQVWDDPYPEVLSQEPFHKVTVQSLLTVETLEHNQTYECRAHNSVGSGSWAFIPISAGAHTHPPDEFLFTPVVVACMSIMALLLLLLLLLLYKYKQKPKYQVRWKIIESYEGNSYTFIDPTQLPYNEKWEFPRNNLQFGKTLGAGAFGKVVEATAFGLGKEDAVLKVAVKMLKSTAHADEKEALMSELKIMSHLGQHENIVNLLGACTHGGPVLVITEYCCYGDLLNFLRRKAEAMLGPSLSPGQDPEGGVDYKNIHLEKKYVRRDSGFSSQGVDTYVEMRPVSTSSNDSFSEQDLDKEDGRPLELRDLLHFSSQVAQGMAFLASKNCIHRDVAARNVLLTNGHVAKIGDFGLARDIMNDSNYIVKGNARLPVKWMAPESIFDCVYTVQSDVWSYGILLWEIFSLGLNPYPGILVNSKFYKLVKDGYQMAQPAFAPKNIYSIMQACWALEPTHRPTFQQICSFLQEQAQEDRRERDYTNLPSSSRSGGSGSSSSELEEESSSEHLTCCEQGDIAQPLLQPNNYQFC
Chain of High affinity nerve growth factor receptor (P04629 whole entry): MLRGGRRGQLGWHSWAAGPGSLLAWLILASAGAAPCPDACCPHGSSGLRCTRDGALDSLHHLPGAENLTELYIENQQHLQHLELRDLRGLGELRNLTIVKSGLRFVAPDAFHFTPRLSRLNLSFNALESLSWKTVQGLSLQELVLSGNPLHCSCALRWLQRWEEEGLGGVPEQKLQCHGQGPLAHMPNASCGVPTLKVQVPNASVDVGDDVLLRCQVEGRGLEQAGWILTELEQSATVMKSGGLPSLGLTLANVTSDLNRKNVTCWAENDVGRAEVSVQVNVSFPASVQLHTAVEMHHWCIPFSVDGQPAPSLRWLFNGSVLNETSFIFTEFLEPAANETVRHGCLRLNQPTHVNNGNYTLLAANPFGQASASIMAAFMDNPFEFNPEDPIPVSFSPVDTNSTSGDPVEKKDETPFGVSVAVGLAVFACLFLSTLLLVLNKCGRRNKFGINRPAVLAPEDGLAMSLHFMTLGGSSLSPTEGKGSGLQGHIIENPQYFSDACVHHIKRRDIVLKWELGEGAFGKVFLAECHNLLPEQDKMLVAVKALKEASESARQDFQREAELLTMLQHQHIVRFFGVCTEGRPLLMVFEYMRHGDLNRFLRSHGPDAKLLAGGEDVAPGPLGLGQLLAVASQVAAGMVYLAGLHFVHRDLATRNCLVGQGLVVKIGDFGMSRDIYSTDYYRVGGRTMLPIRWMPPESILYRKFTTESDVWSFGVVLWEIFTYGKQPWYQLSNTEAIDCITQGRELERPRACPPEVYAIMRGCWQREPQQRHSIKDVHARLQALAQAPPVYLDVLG
Chain of Mast/stem cell growth factor receptor Kit (P10721 whole entry): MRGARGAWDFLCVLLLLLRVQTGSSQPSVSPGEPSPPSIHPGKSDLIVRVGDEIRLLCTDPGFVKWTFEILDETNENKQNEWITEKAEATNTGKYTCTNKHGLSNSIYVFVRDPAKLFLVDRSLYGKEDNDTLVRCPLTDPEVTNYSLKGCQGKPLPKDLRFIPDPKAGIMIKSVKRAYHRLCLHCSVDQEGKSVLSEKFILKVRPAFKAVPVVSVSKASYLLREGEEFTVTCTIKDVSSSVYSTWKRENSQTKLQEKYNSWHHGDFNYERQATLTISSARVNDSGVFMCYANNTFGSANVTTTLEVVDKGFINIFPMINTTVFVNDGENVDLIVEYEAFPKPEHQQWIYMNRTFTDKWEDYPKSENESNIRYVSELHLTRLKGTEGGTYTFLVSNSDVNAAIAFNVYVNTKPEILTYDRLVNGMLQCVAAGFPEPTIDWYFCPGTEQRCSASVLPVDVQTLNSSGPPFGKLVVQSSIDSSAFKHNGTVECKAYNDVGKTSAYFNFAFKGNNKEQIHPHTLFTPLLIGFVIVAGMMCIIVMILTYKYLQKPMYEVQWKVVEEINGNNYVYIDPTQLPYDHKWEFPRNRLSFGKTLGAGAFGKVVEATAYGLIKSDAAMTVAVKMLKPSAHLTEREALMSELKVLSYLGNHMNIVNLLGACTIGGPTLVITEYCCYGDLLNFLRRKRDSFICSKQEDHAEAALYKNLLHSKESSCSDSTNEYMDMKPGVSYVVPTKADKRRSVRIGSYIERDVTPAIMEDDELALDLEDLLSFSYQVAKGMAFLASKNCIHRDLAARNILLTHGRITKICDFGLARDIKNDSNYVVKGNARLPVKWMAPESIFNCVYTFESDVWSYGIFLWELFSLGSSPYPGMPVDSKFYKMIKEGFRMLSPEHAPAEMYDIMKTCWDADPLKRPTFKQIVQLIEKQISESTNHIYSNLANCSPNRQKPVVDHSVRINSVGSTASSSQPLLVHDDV

IC50 [1]: 3 nM
SMILES: N#Cc1ccc(C(=O)Nc2ccc(-n3ccnc3)cc2N2CCCCC2)o1

IC50 [1]: 63 nM
SMILES: N#Cc1ccc(C(=O)Nc2ccc(F)cc2N2CCCCC2)o1

SMILES: CC1CCN(c2cc(N3CCN(C)CC3)cnc2NC(=O)c2ccc(C#N)o2)CC1
IC50 [1]: 720 nM

SMILES: CC1CCN(c2nc(N3CCN(C)CC3)ccc2NC(=O)c2ccc(C#N)o2)CC1
IC50 [1]: 10 nM

IC50 [1]: 6.3 nM
SMILES: CN1CCN(c2ccc(NC(=O)c3ccc(C#N)o3)c(N3CCCC(F)C3)c2)CC1 (configuration not stated)

IC50 [1]: 25 nM
SMILES: CN(c1ccc(NC(=O)c2ccc(C#N)o2)c(N2CCCCC2)c1)S(C)(=O)=O

SMILES: CC(=O)N1CCN(c2ccc(NC(=O)c3cc(C#N)c[nH]3)c(N3CCC(C)CC3)c2)CC1
IC50 [1]: 0.7 nM

SMILES: CN1CCN(c2ccc(NC(=O)c3ccc(C#N)o3)c(N3CCOCC3)c2)CC1
IC50 [1]: 80 nM
IC50 (Macrophage): 2800 nM

SMILES: N#Cc1ccc(C(=O)Nc2ccc(N3CCS(=O)(=O)CC3)cc2N2CCCCC2)o1
IC50 [1]: 0.7 nM

SMILES: Cc1cnn(-c2ccc(NC(=O)c3ccc(C#N)o3)c(N3CCCCC3)c2)c1
IC50 [1]: 64 nM

IC50 [1]: 52 nM
SMILES: CCN(C)CCCc1ccc(NC(=O)c2ccc(C#N)o2)c(N2CCCCC2)c1

IC50 [1]: 21 nM
SMILES: CCOc1ccc(NC(=O)c2ccc(C#N)o2)c(N2CCCCC2)c1

IC50 [2]: 11 nM
IC50 [3]: 3.5 nM
bioavailability [4]: 45%
Cmax [7]: 853 ng/mL
half-life [9]: 4.07 h
Vd [10]: 5.63 L/kg
SMILES: CC1CCN(c2cc(N3CCN(C)CC3)ccc2NC(=O)c2cc(C#N)c[nH]2)CC1
Activity (Mus musculus [5]): 80%
Activity (Mus musculus [6]): 65%
Activity (Mus musculus [8]): 80%
Activity (Mus musculus [11]): 35%

IC50 [1]: 71 nM
SMILES: CS(=O)(=O)Nc1ccc(NC(=O)c2ccc(C#N)o2)c(N2CCCCC2)c1

bioavailability [4]: 32%
Cmax [7]: 386 ng/mL
half-life [9]: 1.03 h
Vd [10]: 7.97 L/kg
SMILES: CN1CCN(c2ccc(NC(=O)c3ccc(C#N)o3)c(N3CCCCC3)c2)CC1
IC50 (Macrophage): 5 nM

IC50 [1]: 0.9 nM
SMILES: CC1CCN(c2cc(N3CCN(S(C)(=O)=O)CC3)ccc2NC(=O)c2ccc(C#N)o2)CC1

bioavailability [4]: 39%
Cmax [7]: 454 ng/mL
half-life [9]: 1.63 h
Vd [10]: 11.4 L/kg
SMILES: CC1CCN(c2cc(N3CCN(C)CC3)ccc2NC(=O)c2ccc(C#N)o2)CC1
IC50 (Macrophage): 2 nM

SMILES: CN1CCN(c2ccc(NC(=O)c3cc(C#N)c[nH]3)c(N3CCCCC3)c2)CC1
IC50 (Macrophage): 2 nM

SMILES: CC1CCN(c2cc(N3CCOCC3)ccc2NC(=O)c2ccc(C#N)o2)CC1
IC50 [1]: 11 nM

IC50 [1]: > 60 nM
SMILES: CN1CCN(c2ccc(NC(=O)c3ccc(C#N)o3)c(N3CCCCC3=O)c2)CC1
IC50 (Macrophage): > 10000 nM

IC50 [1]: 1 nM
SMILES: CC1CCN(c2cc(N3CCNCC3)ccc2NC(=O)c2cc(C#N)c[nH]2)CC1

IC50 [1]: 83 nM
SMILES: CN1CCN(C(=O)N(C)c2ccc(NC(=O)c3ccc(C#N)o3)c(N3CCCCC3)c2)CC1

IC50 [1]: 17 nM
SMILES: N#Cc1ccc(C(=O)Nc2ccc(N3CCCCC3)cc2N2CCCCC2)o1
